In US10745487B2, “Method of treating cancer by administering an anti-LGR5 monoclonal antibody” (Bionomics Limited, priority 2016, dated 2020):

How the values were obtained:
[1] = test system: LGR5 expression in CRC cell lines; assay: LGR5 expression by flow cytometry in treated CRC cell lines; type: cell-based, human; settings: panel DLD1, HCT116, LS174t, LoVo, SW48, SW480, SW620; 1 um, 72 hrs
Protocol: A panel of CRC cell lines including DLD1, HCT116, LS174t, LoVo, SW48, SW480 and SW620 were treated with a PI3K/mTOR dual inhibitor (NVP) or 2 different cytotoxic agents including SN38 (active metabolite of Irinotecan) or 5FU (5 fluorouracil). Cells were treated with the above agents at 1 um and were harvested after 72 hrs. Cells were then stained with anti-LGR5 Mab conjugated to Alexa Fluor647 and the data were analyzed by flow cytometry using a FACScalibur.

[2] = test system: LGR5 expression in pancreatic cell lines; assay: LGR5 expression by flow cytometry in treated pancreatic cell lines; type: cell-based, human; settings: panel AsPc1, HPAFII, PANC1, BxPC3, CFPAC, PANC10.05, Capan2, SW1990
Protocol: The pancreatic cell lines that were tested include: AsPc1, HPAFII, PANC1, BxPC3, CFPAC, PANC10.05, Capan2 and SW1990.

[3] = test system: LGR5 expression in JH109, ASPC1 and PANC1 tumors; assay: QPCR of LGR5 expression in treated pancreatic tumors; type: in vivo, mice; settings: standard of care: Gemzar and Abraxane in JH109, Gemzar alone in PANC1 and ASPC1
Protocol: LGR5 expression in metastatic pancreatic patient derived xenografts was investigated using the quantitative polymerase chain reaction (QPCR). A sample of tumor tissue was flash frozen or added to a cryovial containing RNAlater (Qiagen, CA), and transferred to −70° C. after incubation at 4° C. for several hours. Total RNA was extracted using a Qiagen RNeasy extraction kit (Qiagen, CA), and cDNA was synthesized using a SuperScriptIII kit (Life Technologies, CA) and protocols provided by the manufacturer. Human LGR5 transcript abundance was measured using human specific LGR5 and GAPDH primers and the following thermal condition in the StepOne Thermocycler (Life Technologies, CA): 50° C. (2 min); 90° C. (2 min) and 40 cycles of 90° C. (15 sec) and 60° C. (1 min) and melt curve assessment (from 65° C.-95° C.). LGR5 abundance was quantified using 2^δCt equation.
LGR5 expression was investigated in a series of pancreatic tumors including JH109, ASPC1 and PANC1.

Row | SMILES | LGR5 expression (flow cytometry) [1] | LGR5 expression (flow cytometry) [2] | LGR5 expression in tumors (QPCR) [3]
1 | O=c1[nH]cc(F)c(=O)[nH]1 [5FU, 5 fluorouracil] | did not induce LGR5 expression in any of these lines | – | –
2 | CCc1c2c(nc3ccc(O)cc13)-c1cc3c(c(=O)n1C2)COC(=O)[C@]3(O)CC [SN38] | promoted LGR5 expression in HCT116, LS174t, SW48, SW480 and especially SW620 cells | – | –
3 | Nc1ccn([C@@H]2O[C@H](CO)[C@@H](O)C2(F)F)c(=O)n1 [gemcitabine, reference compound] | – | upregulates LGR5 in PANC1 | induction in LGR5 expression
4 | CC(=O)O[C@H]1C(=O)[C@@]2(C)[C@H]([C@H](OC(=O)c3ccccc3)[C@]3(O)C[C@H](OC(=O)[C@H](O)[C@@H](NC(=O)c4ccccc4)c4ccccc4)C(C)=C1C3(C)C)[C@]1(OC(C)=O)CO[C@@H]1C[C@@H]2O [taxol] | – | increased LGR5 expression in HPAFII | –
